According to patent publication US6803383B2, “Inhibition of angiogenesis and tumor growth” (The Scripps Research Institute, priority 2000, dated 2004):

Experiments:
MMP2 [1] = biological target: T1, MMP2 (Homo sapiens, UniProt P08253); assay: [3H]-collagen IV degradation by purified active MMP2 without cells; format: biochemical; conditions: 4 nM active MMP2, 10 μM compound, no cells
T1 construct: purchased Calbiochem (La Jolla, Calif.)
T1 sequence (P08253 110-660): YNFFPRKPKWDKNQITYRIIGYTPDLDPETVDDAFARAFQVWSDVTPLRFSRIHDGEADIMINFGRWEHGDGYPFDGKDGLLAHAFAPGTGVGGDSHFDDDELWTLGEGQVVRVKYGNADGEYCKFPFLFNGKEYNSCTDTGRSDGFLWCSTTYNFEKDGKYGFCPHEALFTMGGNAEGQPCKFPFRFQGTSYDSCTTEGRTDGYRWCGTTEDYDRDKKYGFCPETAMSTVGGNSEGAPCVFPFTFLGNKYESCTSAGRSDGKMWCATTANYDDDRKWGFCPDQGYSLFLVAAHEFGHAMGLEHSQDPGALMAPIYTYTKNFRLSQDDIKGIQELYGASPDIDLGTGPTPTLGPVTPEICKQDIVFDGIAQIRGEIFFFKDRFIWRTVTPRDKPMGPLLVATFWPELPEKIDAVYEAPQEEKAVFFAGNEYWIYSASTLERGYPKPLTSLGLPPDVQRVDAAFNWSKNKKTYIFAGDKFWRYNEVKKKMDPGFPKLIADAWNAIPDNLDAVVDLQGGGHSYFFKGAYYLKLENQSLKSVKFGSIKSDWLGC
Procedure: (§1) CS-1 cells or β3CS-1 cells were incubated in adhesion buffer fibroblast basal medium (FBM) supplemented with 0.5% bovine serum albumin (BSA), 0.4 mM MnCl2 and 10 μg/ml aprotinin) containing either 4 nM purified active MMP2 alone, or in combination with 10 μM Compound 1 or Compound 12 for 45 minutes at 37° C. prior to washing and addition to the [^3H]-collagen IV-coated wells. Wells had been coated overnight with 50 μl of 0.414 mCi/ml [^3H]-collagen IV (ICN Biochemicals, Costa Mesa, Calif.) and washed extensively until the radioactivity in the recovered wash solution reached background. Alternatively, cells were treated as above in the absence of MMP2, or the MMP2 solutions were added directly to the wells without cells, as controls. Collagen IV degradation was quantitated by measuring the radioactivity released into the 50 μl of culture medium as determined in a liquid scintillation counter. For the assessment of biotinylated MMP2 binding to CS-1 cells, cells were suspended in adhesion buffer and incubated with 12 nM bMMP2 for 45 minutes at 37° C. in the presence or absence of 10 μM Compound 1 or Compound 12. Cells were subsequently washed before lysis and processing for SDS-PAGE and immunoblotting with an anti-biotin mAb.

integrin α5β1 = integrin α5β1 (Homo sapiens, UniProt P05556+P08648); assay: Direct binding of [14C]-Compound 1 to immobilized control integrin, solid phase
integrin α5β1, sequence (P08648 42-894 limits assumed): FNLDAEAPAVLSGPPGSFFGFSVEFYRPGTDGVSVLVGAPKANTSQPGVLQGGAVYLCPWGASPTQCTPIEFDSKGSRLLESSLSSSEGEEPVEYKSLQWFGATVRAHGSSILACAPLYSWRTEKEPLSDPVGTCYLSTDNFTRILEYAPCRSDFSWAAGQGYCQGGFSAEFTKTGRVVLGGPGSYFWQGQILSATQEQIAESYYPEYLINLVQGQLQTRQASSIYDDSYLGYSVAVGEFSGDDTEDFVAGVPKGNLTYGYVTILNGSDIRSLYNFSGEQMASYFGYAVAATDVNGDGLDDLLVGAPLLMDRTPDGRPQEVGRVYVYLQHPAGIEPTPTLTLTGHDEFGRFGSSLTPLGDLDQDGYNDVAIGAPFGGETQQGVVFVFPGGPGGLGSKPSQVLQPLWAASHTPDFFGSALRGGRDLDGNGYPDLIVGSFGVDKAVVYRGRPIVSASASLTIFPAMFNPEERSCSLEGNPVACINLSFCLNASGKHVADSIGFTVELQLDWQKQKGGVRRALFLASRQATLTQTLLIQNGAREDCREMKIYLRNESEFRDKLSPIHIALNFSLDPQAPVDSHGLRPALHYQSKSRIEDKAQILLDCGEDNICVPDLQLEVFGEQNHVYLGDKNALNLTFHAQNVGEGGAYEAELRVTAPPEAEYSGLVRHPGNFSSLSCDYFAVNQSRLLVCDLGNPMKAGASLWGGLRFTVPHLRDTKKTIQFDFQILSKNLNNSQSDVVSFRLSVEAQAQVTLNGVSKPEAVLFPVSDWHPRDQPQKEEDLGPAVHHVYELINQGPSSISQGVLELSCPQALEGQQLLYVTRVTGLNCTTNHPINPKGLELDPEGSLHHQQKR
integrin α5β1, sequence (P08648 895-1049 limits assumed): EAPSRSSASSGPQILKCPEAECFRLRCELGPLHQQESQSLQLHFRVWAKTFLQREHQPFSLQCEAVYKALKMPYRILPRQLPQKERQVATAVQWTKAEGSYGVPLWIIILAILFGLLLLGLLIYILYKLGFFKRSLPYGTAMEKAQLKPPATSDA
integrin α5β1, sequence (P05556 21-798): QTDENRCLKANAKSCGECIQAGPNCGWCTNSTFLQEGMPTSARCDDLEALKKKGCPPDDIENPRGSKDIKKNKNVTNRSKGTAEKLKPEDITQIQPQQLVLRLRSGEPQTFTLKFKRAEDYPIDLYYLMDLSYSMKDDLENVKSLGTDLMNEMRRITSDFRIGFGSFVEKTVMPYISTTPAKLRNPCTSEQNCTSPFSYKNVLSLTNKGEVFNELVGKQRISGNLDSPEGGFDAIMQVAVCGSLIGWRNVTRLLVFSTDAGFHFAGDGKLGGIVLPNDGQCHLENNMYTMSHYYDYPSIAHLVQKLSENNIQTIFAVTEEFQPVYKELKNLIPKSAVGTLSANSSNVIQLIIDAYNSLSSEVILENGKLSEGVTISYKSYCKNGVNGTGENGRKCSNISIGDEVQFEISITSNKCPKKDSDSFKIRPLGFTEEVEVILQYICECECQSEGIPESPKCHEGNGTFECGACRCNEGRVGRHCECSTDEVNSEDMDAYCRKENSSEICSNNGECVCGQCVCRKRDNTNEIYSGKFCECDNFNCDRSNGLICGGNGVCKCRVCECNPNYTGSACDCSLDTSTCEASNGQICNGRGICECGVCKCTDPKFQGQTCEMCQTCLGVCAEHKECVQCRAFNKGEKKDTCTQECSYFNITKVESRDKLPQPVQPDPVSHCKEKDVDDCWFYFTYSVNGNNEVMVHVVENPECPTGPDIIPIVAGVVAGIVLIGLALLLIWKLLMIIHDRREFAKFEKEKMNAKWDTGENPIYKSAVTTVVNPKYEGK
Procedure: (§2) Dried wells were separated and immersed in BetaMax liquid scintillation cocktail (ICN Biochemicals, Costa Mesa, Calif.) for quantitation. From this binding curve a subsaturating concentration (3 μM) of [^14C]-Compound 1 was examined in the presence and absence of a 25-fold molar excess ([…]) of unlabeled Compound 1 or Compound 12, or 100 μM cyclic RGD or RAD peptide. Control was bVN, used and detected as described above.

[2] = tested on: αvβ3-negative CS-1 melanoma tumors; assay: Tumor growth assay on chick CAM; format: in vivo
Procedure: Primary tumors were grown on CAMs of 9-day embryos by implantation 5×10^6 CS-1 cells and incubation for 7 days. At this point, 50 mg sections of these tumors were subcultured onto fresh 9-day CAMs and allowed to implant for 24 hours before a single intravenous (IV) injection with 100 μl of 100 μM of test compounds in Hank's Balanced Saline Solution (HBSS). Buffer alone was used as control. Tumors were incubated for a total of 10 days, harvested and trimmed free of excess stromal tissue before determining wet weight and processing for histology.
Snap-frozen CS-1 tumor sections were fixed with 4% paraformaldehyde and permeablized with 0.1% Triton X-100. Sections were blocked with 5% bovine serum albumin (BSA) in phosphate buffered saline (PBS) prior to staining with an anti-vWF pAb and visualization with an Alexa 568-conjugated anti-rabbit secondary antibody. Samples were analyzed on a MRC1024 confocal microscope (BioRad, Hercules, Calif.). Blood vessel density was quantitated with a 20×objective on four fields per section and four tumors per condition.

CS-1 cells = assay: Biotinylated MMP2 cell-binding assay, β3-negative cells; format: cell-based, hamster; conditions: 12 nM bMMP2, 10 μM compound; FIG. 3B
Procedure: as §1, with “Wells” for “CS-1 cells or β3CS-1 cells were incubated in adhesion buffer fibroblast basal medium (FBM) supplemented with 0.5% bovine serum albumin (BSA), 0.4 mM MnCl2 and 10 μg/ml aprotinin) containing either 4 nM purified active MMP2 alone, or in combination with 10 μM Compound 1 or Compound 12 for 45 minutes at 37° C. prior to washing and addition to the [^3H]-collagen IV-coated wells. Wells”

[3] = biological target: T2, MMP2 binding to integrin αvβ3 (Homo sapiens, UniProt P05106+P06756); assay: Solid phase integrin binding assay: biotinylated MMP2 binding to immobilized integrin; conditions: bMMP2 3-5 nM, FIG. 2A
T2 construct: purchased Merck KGaA or Chemicon International (integrin); Chemicon (proMMP2) or Calbiochem (active MMP2)
T2 sequence (P06756 31-889 limits assumed): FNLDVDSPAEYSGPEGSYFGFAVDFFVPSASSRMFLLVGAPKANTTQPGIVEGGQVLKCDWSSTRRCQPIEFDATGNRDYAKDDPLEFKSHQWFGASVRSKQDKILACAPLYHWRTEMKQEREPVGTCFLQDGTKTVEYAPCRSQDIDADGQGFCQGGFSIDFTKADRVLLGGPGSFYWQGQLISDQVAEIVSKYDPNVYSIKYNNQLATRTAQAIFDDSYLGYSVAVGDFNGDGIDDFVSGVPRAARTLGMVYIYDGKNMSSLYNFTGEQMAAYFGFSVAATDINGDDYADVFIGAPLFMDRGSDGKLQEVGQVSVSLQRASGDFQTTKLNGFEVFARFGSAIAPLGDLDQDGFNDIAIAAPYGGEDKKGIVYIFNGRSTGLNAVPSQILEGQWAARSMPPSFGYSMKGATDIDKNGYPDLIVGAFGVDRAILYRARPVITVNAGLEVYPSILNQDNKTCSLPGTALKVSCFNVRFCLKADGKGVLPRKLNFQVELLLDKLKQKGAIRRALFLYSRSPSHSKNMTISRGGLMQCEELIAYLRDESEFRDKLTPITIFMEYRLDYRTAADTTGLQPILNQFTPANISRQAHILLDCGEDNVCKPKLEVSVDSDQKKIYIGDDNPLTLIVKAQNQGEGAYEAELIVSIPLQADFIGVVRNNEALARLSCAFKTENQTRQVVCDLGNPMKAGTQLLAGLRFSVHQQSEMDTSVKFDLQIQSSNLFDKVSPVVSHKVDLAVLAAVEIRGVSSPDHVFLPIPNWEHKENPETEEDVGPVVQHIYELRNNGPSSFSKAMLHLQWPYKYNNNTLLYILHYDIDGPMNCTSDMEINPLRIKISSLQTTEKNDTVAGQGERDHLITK
T2 sequence (P06756 891-1048 limits assumed): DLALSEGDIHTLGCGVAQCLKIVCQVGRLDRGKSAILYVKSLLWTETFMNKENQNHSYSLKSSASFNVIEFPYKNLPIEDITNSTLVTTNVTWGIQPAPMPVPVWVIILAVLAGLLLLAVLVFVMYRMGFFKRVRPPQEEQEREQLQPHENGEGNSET
T2 sequence (P05106 27-788): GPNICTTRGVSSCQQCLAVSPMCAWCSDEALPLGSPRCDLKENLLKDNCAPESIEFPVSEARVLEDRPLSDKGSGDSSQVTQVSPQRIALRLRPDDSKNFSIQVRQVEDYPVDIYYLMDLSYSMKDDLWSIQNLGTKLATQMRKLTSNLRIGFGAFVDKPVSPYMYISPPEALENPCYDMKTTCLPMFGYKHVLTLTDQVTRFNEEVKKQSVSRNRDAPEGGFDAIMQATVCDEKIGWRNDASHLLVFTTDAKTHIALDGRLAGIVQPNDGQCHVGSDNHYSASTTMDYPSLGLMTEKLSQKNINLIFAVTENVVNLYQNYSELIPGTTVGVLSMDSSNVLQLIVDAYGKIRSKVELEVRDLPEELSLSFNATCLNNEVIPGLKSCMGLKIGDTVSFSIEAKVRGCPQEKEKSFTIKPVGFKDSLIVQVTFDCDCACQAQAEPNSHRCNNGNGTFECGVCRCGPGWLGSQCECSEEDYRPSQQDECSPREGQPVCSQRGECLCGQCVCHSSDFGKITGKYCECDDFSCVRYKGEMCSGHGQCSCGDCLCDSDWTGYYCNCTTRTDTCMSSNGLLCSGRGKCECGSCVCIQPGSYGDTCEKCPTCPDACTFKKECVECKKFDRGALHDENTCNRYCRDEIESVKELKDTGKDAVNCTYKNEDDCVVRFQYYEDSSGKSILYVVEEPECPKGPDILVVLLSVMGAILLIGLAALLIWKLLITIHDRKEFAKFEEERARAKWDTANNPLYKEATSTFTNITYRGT
Procedure: (§3) Purified integrins were adsorbed overnight onto microtiter wells (1-5 μg/ml, […]) prior to blocking with Caseinblocker (Pierce, Rockford, Ill.). Purified biotinylated MMP2 (bMMP2, 3-5 nM) in binding buffer (50 mM Tris, pH 8, 150 mM NaCl, 1 mM MgCl2, 0.5 mM MnCl2) was added to the wells in the presence or absence of Compound 1, Compound 12, cyclic RGD or RAD peptides, or buffer vehicle alone. Control wells received no integrin. Biotinylated vitronectin (bVN, 1 μg/ml) was used as a reference. Bound protein was detected with HRP-anti-biotin mAb and quantitated at 450 nm with 3,3′,5,5′-tetramethylbenzidine solution (TMB; a substrate for the peroxidase) (BioRad, Hercules, Calif.).

MMP2 [4] = assay: Zymography of chick CAM lysates; format: in vivo; conditions: FIG. 4C
Procedure: (§4) Angiogenesis was assessed essentially as described previously (Cell, 85, 683-93 (1996); Cell, 92, 391-400 (1998)). After stimulation with 3 μg/ml of basic fibroblast growth factor (bFGF), 10 day chick embryo CAMs were treated with 20 μl of 3 μM Compound 1 or Compound 12. Three days after induction, the CAMs were quantitated in a blind evaluation. CAMs from each group were pooled, minced, and extracted with 50 mM Tris, […], 0.1% Triton X-100 containing COMPLETE-brand protease inhibitor cocktail without EDTA (Boehringer, Mannheim, Germany) prior to analysis by zymography.
Zymography. Chick CAM lysates were prepared as described above and equal quantities of protein were separated in the absence of reducing agents or boiling on polyacrylamide gels embedded with 0.2% gelatin. The gels were washed with 2% Triton X-100, followed by extensive washing with water prior to overnight incubation at 37° C. in collagenase buffer (50 mM Tris 7.4, 200 mM NaCl 10 mM CaCl2). Gelatinolytic activity was visualized by staining the gels with 0.5% Coomassie blue.

[5] = biological target: T3, MMP2 and tissue inhibitor of metalloproteinase 2 (TIMP2) (Homo sapiens, UniProt P08253); assay: Binding between MMP2 and TIMP2
T3 sequence (P08253 110-660): T1 sequence (P08253 110-660)

β3CS-1 cells [6] = assay: Cell-mediated [3H]-collagen IV degradation via MMP2; format: cell-based, hamster; conditions: 4 nM active MMP2, 10 μM compound, FIG. 3A
Procedure: as §1, with “Wells” for “CS-1 cells or β3CS-1 cells were incubated in adhesion buffer fibroblast basal medium (FBM) supplemented with 0.5% bovine serum albumin (BSA), 0.4 mM MnCl2 and 10 μg/ml aprotinin) containing either 4 nM purified active MMP2 alone, or in combination with 10 μM Compound 1 or Compound 12 for 45 minutes at 37° C. prior to washing and addition to the [^3H]-collagen IV-coated wells. Wells”

MMP2 [7] = biological target: T1, MMP2; assay: Direct binding of Compound 1 to MMP2 coated on the microtiter well; conditions: data not shown
integrin αvβ3 = biological target: T4, integrin αvβ3 (Homo sapiens, UniProt P05106+P06756); assay: Direct binding of [14C]-Compound 1 to immobilized integrin, solid phase
T4 construct: purchased Merck KGaA or Chemicon International
T4 sequence (P06756 31-889 limits assumed): as the sequence (P06756 31-889 limits assumed) above
T4 sequence (P06756 891-1048 limits assumed): as the sequence (P06756 891-1048 limits assumed) above
T4 sequence (P05106 27-788): as the sequence (P05106 27-788) above
Procedure: as §2

β3CS-1 cells [8] = assay: Biotinylated MMP2 cell-binding assay, β3-positive cells; format: cell-based, hamster
Procedure: as §1, with “For the assessment of biotinylated MMP2 binding to CS-1 cells, cells were suspended in adhesion buffer and incubated with 12 nM bMMP2 for 45 minutes at 37° C. in the presence or absence of 10 μM Compound 1 or Compound 12. Cells were subsequently washed before lysis and processing for SDS-PAGE and immunoblotting with an anti-biotin mAb.” left out
Immunoblotting. Equal quantities of protein were separated by SDS-PAGE under reducing conditions and electroblotted to an Immobilon-P membrane (Millipore, Bedford, Md.). The membrane was blocked and immobilized proteins were detected by incubation with an antigen-specific primary antibody, followed by an HRP-conjugated secondary antibody as required. […]

[9] = tested on: bFGF-induced angiogenesis on chick CAM; assay: Chick chorioallantoic membrane (CAM) angiogenesis assay; format: in vivo; conditions: 10 day chick CAM, 3 μg/ml bFGF, 20 μl of 3 μM compound, 3 days; FIGS. 4A, 4B
Procedure: as §4

CS-1 melanoma cells = assay: In vitro growth of melanoma cells in co-culture with compound; format: cell-based, hamster; conditions: co-culture with the compound; data not shown
[10] = biological target: T5, vitronectin binding to integrin αvβ3 (Homo sapiens, UniProt P05106+P06756); assay: Solid phase integrin binding assay: biotinylated vitronectin (bVN) binding to immobilized integrin
T5 construct: purchased Merck KGaA or Chemicon International (integrin)
T5 sequence (P06756 31-889 limits assumed): as the sequence (P06756 31-889 limits assumed) above
T5 sequence (P06756 891-1048 limits assumed): as the sequence (P06756 891-1048 limits assumed) above
T5 sequence (P05106 27-788): as the sequence (P05106 27-788) above
Procedure: as §3, §2

For `O=C(CNC(=O)c1cccc(C(=O)NCC(=O)NCCCC[C@H](NC(=O)OCc2ccc(C(F)(F)F)cc2)C(=O)O)c1)NCCCC[C@H](NC(=O)OCc1ccc(C(F)(F)F)cc1)C(=O)O` [Compound 1, N,N^1-Bis-[(5-(S)-carboxy-5-[((4-trifluoromethyl)benzyloxycarbonyl)amino]-pentyl)carboxamidomethyl]benzene-1,3-dicarboxamide], the “Effect on [3H]collagen IV degradation by purified active MMP2 in the absence of cells” value (MMP2 [1]) was “still able to degrade”, the “Direct binding to control integrin α5β1” value (integrin α5β1; [14C]-labeled Compound 1, FIG. 2B) was “minimal interaction” and the “Direct binding to integrin α5β1 at higher concentrations” value (integrin α5β1; higher concentrations of compound, data not shown) was “negligible binding”. For the same molecule, the “Overall tumor blood vessel density” value ([2]; anti-vWF immunofluorescence of tumor sections) was “gross reduction”, the “Cell death within the tumor mass” value ([2]; single IV injection, 100 μl of 100 μM) was “significant cell death” and the Tumor weight ([2]; single IV injection, 100 μl of 100 μM, 10 days, wet weight) was “significantly retarded”. The “Growth of transplanted CS-1 melanoma tumors on chick CAM” value ([2]; single IV injection, 100 μl of 100 μM, 10 days, FIG. 5A) was “significantly retarded”, the Tumor surface vasculature ([2]; single IV injection, 100 μl of 100 μM, FIG. 5A) was “gross reduction” and the “Effect on biotinylated MMP2 binding to β3-negative CS-1 cells” value (CS-1 cells) was “not diminished”. For the same molecule, the “Effect on MMP2 binding to integrin αvβ3” value [3] was “completely abrogated”, the “Levels of active MMP2 (62 kDa) in CAM tissues, treated versus untreated” value (MMP2 [4]) was “equivalent levels of active MMP2” and the “Overall levels of MMP2 in CAM lysates” value (MMP2 [4]) was “unaffected”. The “Effect on binding between MMP2 and TIMP2” value [5] was “not inhibited”, the “Effect on MMP2-enhanced cell-mediated [3H]collagen IV degradation” value (β3CS-1 cells [6]) was “specifically abolished” and the “Direct binding to MMP2 coated on the well” value (MMP2 [7]) was “no binding”. For the same molecule, the “Inhibition of [14C]-Compound 1 binding to integrin αvβ3 by unlabeled compound” value (integrin αvβ3; 3 μM [14C]-Compound 1, 25-fold molar excess of unlabeled compound, FIG. 2C) was “inhibited”, the “Direct binding to integrin αvβ3” value (integrin αvβ3; [14C]-labeled Compound 1, titration, FIG. 2B) was “bound directly” and the “Effect on enhanced biotinylated MMP2 binding to β3CS-1 cells” value (β3CS-1 cells [8]; 12 nM bMMP2, 10 μM compound, FIG. 3B) was “specifically suppressed”. The “Biotinylated MMP2 binding to β3CS-1 cells, corrected for lane loading” value (β3CS-1 cells [8]; 10 μM compound, corrected by anti-actin mAb staining, FIG. 3B lane 2) was “reduced the binding of MMP2 to the β3CS-1 cells to the level observed in the absence αvβ3”, the “Effect on development of new blood vessels in bFGF-stimulated CAM” value [9] was “almost completely abolished” and the “Growth of CS-1 melanoma cells in vitro” value (CS-1 melanoma cells) was “not affected”.
For `COC(=O)[C@H](CCCCNC(=O)CNC(=O)c1ccccc1)NC(=O)OCc1ccc(C(F)(F)F)cc1` [Compound 6, (S)-Methyl 6-[2-(benzoylamino)acetamido]-2-[(4-trifluoromethyl)benzyloxycarbonyl)hexanoate], the “Effect on MMP2 binding to integrin αvβ3” value [3] was “slightly less active than Compound 1”.
For `COC(=O)[C@H](CCCCNC(=O)CNC(=O)COCC(=O)O)NC(=O)OCc1ccc(C(F)(F)F)cc1` [Compound 8], the “Effect on MMP2 binding to integrin αvβ3” value [3] was “inactive”.
With `O=C(CNC(=O)c1cccc(C(=O)NCC(=O)NCCCC[C@H](NC(=O)c2ccccc2)C(=O)O)c1)NCCCC[C@H](NC(=O)c1ccccc1)C(=O)O` [Compound 12, N,N′-Bis-[N-(-5-(S)-((benzoyl)amino)-5-(carboxy)pentyl)carboxamidomethyl]benzene-1,3-dicarboxamide] the “Effect on [3H]collagen IV degradation by purified active MMP2 in the absence of cells” value (MMP2 [1]) was “still able to degrade”, the “Effect on biotinylated MMP2 binding to β3-negative CS-1 cells” value (CS-1 cells) was “not diminished” and the “Effect on MMP2 binding to integrin αvβ3” value [3] was “neither the control compound nor the control peptide cRADfV interfered”. The “Effect on MMP2-enhanced cell-mediated [3H]collagen IV degradation” value (β3CS-1 cells [6]) was “negligible effect” and the “Effect on development of new blood vessels in bFGF-stimulated CAM” value [9] was “ineffective”.
For cRGDfV [reference compound], the “Effect on MMP2 binding to integrin αvβ3” value [3] was “lack of effect”, the “Inhibition of [14C]-Compound 1 binding to integrin αvβ3 by peptide” value (integrin αvβ3; 3 μM [14C]-Compound 1, 100 μM cyclic peptide, FIG. 2D) was “inability of the cRGDfV peptide to inhibit” and the “Inhibition of bVN binding to immobilized integrin αvβ3 by peptide” value ([10]; 100 μM cyclic peptide, FIG. 2D) was “completely abolished”. The “Effect on vitronectin binding to integrin αvβ3” value ([10]; bVN 1 μg/ml, FIG. 2A) was “inhibited”.
